This assay concerns the target Neuraminidase (Influenza A virus, UniProt Q6Q793).

Consider 2 compounds from ChEMBL document CHEMBL2203066 (J Med Chem, 2012).

With `CCOP(=O)(O)C1=C[C@@H](OC(CC)CC)[C@H](NC(C)=O)[C@@H](N)C1` [TAMIPHOSPHOR MONOETHYL ESTER], half-maximal inhibition (IC50) required 2.2 nM.
Turning to `CCC(CC)O[C@@H]1C=C(P(=O)(O)O)C[C@H](NC(=N)N)[C@H]1NC(C)=O`, it took 0.04 nM to reach half-maximal inhibition (IC50).

As usually defined, the IC50 is the concentration needed to halve the response being measured. Low values mean higher potency, high ones lower potency.
